{
  "source": "ChEMBL document CHEMBL3860070",
  "about": "“Optimization and biological evaluation of celastrol derivatives as Hsp90-Cdc37 interaction disruptors with improved druglike properties” (Bioorg Med Chem, 2016)",
  "key": {"[1]": {"assay": "Cell cycle arrest in human PANC1 cells assessed as accumulation at G2/M phase at 0.5 uM after 24 hrs by propidium iodide staining-based FACS analysis (reference value: 33.56 %)", "type": "functional", "conditions": "PANC-1"}, "PANC-1 [2]": {"system": "PANC-1", "assay": "Induction of apoptosis in human PANC1 cells assessed as early apoptotic cells at 0.5 uM after 24 hrs by Annexin V-FITC/propidium iodide-based FACS analysis (reference value: 4.31 %)", "type": "functional"}, "[3]": {"assay": "Cell cycle arrest in human PANC1 cells assessed as accumulation at G0/G1 phase at 1 uM after 24 hrs by propidium iodide staining-based FACS analysis (reference value: 36.48 %)", "type": "functional", "conditions": "PANC-1"}, "PANC-1 [4]": {"system": "PANC-1", "assay": "Induction of apoptosis in human PANC1 cells assessed as necrotic cells at 1 uM after 24 hrs by Annexin V-FITC/propidium iodide-based FACS analysis (reference value: 0.75 %)", "type": "functional"}, "PANC-1 [5]": {"system": "PANC-1", "assay": "Induction of apoptosis in human PANC1 cells assessed as late apoptotic cells at 0.5 uM after 24 hrs by Annexin V-FITC/propidium iodide-based FACS analysis (reference value: 0.30 %)", "type": "functional"}, "[6]": {"assay": "Permeability of the compound at pH 7.4 by PAMPA-based pION assay", "type": "ADME", "conditions": "read-out: permeability"}, "PANC-1 [7]": {"system": "PANC-1", "assay": "Inhibition of Hsp90/Cdc37 interaction in human PANC1 cells assessed as downregulation of Akt after 24 hrs by Western blot analysis", "type": "cell-based"}, "Homo sapiens": {"species_on_record": "Homo sapiens", "assay": "Inhibition of His-tagged full length Hsp90/GST-tagged Cdc37 middle domain (unknown origin) interaction at 50 uM after 1 hr by TR-FRET assay relative to control"}, "[8]": {"assay": "Antiproliferative activity against human PANC1 cells assessed as reduction in cell viability after 48 hrs by MTT assay", "type": "functional, cell-based", "conditions": "PANC-1, 48 h"}, "[9]": {"assay": "Antiproliferative activity against human A549 cells assessed as reduction in cell viability after 48 hrs by MTT assay", "type": "functional, cell-based", "conditions": "A549, 48 h"}, "PANC-1 [10]": {"system": "PANC-1", "assay": "Induction of apoptosis in human PANC1 cells after 24 hrs by Annexin V-FITC/propidium iodide-based FACS analysis", "type": "functional, cell-based"}, "[11]": {"assay": "Cell cycle arrest in human PANC1 cells assessed as accumulation at S phase at 0.5 uM after 24 hrs by propidium iodide staining-based FACS analysis (reference value: 29.96 %)", "type": "functional", "conditions": "PANC-1"}, "PANC-1 [12]": {"system": "PANC-1", "assay": "Inhibition of Hsp90/Cdc37 interaction in human PANC1 cells assessed as induction of Hsp70 at 0.1 to 5 uM after 24 hrs by Western blot analysis", "type": "cell-based"}, "[13]": {"assay": "Inhibition of His-tagged full length Hsp90/GST-tagged Cdc37 middle domain (unknown origin) interaction after 1 hr by TR-FRET assay", "design": "species or system Homo sapiens"}, "PANC-1 [14]": {"system": "PANC-1", "assay": "Inhibition of Hsp90/Cdc37 interaction in human PANC1 cells assessed as downregulation of Cdk4 after 24 hrs by Western blot analysis", "type": "cell-based"}, "PANC-1 [15]": {"system": "PANC-1", "assay": "Induction of apoptosis in human PANC1 cells assessed as necrotic cells at 0.5 uM after 24 hrs by Annexin V-FITC/propidium iodide-based FACS analysis (reference value: 0.75 %)", "type": "functional"}, "[16]": {"assay": "Cell cycle arrest in human PANC1 cells assessed as accumulation at S phase at 1 uM after 24 hrs by propidium iodide staining-based FACS analysis (reference value: 29.96 %)", "type": "functional", "conditions": "PANC-1"}, "[17]": {"assay": "Antiproliferative activity against paclitaxel-resistant human A549 cells assessed as reduction in cell viability after 48 hrs by MTT assay", "type": "functional, cell-based", "conditions": "A549, 48 h"}, "PANC-1 [18]": {"system": "PANC-1", "assay": "Induction of apoptosis in human PANC1 cells assessed as viable cells at 0.5 uM after 24 hrs by Annexin V-FITC/propidium iodide-based FACS analysis (reference value: 94.63 %)", "type": "functional", "conditions": "PANC-1, 24 h, read-out: Activity"}, "PANC-1 [19]": {"system": "PANC-1", "assay": "Induction of apoptosis in human PANC1 cells assessed as late apoptotic cells at 1 uM after 24 hrs by Annexin V-FITC/propidium iodide-based FACS analysis (reference value: 0.30 %)", "type": "functional"}, "PANC-1 [20]": {"system": "PANC-1", "assay": "Induction of apoptosis in human PANC1 cells assessed as viable cells at 1 uM after 24 hrs by Annexin V-FITC/propidium iodide-based FACS analysis (reference value: 94.63 %)", "type": "functional", "conditions": "PANC-1, 24 h, read-out: Activity"}, "PANC-1 [21]": {"system": "PANC-1", "assay": "Induction of apoptosis in human PANC1 cells assessed as early apoptotic cells at 1 uM after 24 hrs by Annexin V-FITC/propidium iodide-based FACS analysis (reference value: 4.31 %)", "type": "functional"}, "[22]": {"assay": "Cell cycle arrest in human PANC1 cells assessed as accumulation at G0/G1 phase at 0.5 uM after 24 hrs by propidium iodide staining-based FACS analysis (reference value: 36.48 %)", "type": "functional", "conditions": "PANC-1"}, "[23]": {"assay": "Cell cycle arrest in human PANC1 cells assessed as accumulation at G2/M phase at 1 uM after 24 hrs by propidium iodide staining-based FACS analysis (reference value: 33.56 %)", "type": "functional", "conditions": "PANC-1"}, "[24]": {"assay": "Antiproliferative activity against human MCF7 cells assessed as reduction in cell viability after 48 hrs by MTT assay", "type": "functional, cell-based", "conditions": "MCF7, 48 h"}},
  "note": "Active and inactive are the calls of the source. The calls are words filed in the database; no cut-off is given here.",
  "data": [
    {"smiles": "CC1=C(O)C(=O)C=C2C1=CC=C1[C@@]2(C)CC[C@@]2(C)[C@@H]3C[C@](C)(C(=O)NCCN4CCN(C)CC4)CC[C@]3(C)CC[C@]12C", "values": [
      {"measurement": "Activity", "setting": "[1]", "result": 32, "unit": "%"},
      {"measurement": "Activity", "setting": "PANC-1 [2]", "result": 8.37, "unit": "%"},
      {"measurement": "Activity", "setting": "[3]", "result": 55.4, "unit": "%"},
      {"measurement": "Activity", "setting": "PANC-1 [4]", "result": 2.31, "unit": "%"},
      {"measurement": "Activity", "setting": "PANC-1 [5]", "result": 0.4, "unit": "%"},
      {"measurement": "Papp", "setting": "[6]", "result": 29, "unit": "×10⁻⁶ cm/s"},
      {"measurement": "inhibition", "setting": "PANC-1 [7]", "result": "Dose-dependent effect"},
      {"measurement": "inhibition", "setting": "Homo sapiens", "result": 96.9, "unit": "%"},
      {"measurement": "IC50", "setting": "[8]", "result": 1120, "unit": "nM"},
      {"measurement": "IC50", "setting": "[9]", "result": 1010, "unit": "nM"},
      {"measurement": "Activity", "setting": "PANC-1 [10]", "result": "Dose-dependent effect"},
      {"measurement": "Activity", "setting": "[11]", "result": 21.4, "unit": "%"},
      {"measurement": "inhibition", "setting": "PANC-1 [12]", "result": "Active"},
      {"measurement": "IC50", "setting": "[13]", "result": 4710, "unit": "nM"},
      {"measurement": "inhibition", "setting": "PANC-1 [14]", "result": "Dose-dependent effect"},
      {"measurement": "Activity", "setting": "PANC-1 [15]", "result": 1.27, "unit": "%"},
      {"measurement": "Activity", "setting": "[16]", "result": 18.7, "unit": "%"},
      {"measurement": "IC50", "setting": "[17]", "result": 450, "unit": "nM"},
      {"measurement": "viability at 0.5 µM", "setting": "PANC-1 [18]", "result": 90, "unit": "%"},
      {"measurement": "Activity", "setting": "PANC-1 [19]", "result": 2.61, "unit": "%"},
      {"measurement": "viability at 1 µM", "setting": "PANC-1 [20]", "result": 64.1, "unit": "%"},
      {"measurement": "Activity", "setting": "PANC-1 [21]", "result": 31.01, "unit": "%"},
      {"measurement": "Activity", "setting": "[22]", "result": 46.6, "unit": "%"},
      {"measurement": "Activity", "setting": "[23]", "result": 25.9, "unit": "%"},
      {"measurement": "IC50", "setting": "[24]", "result": 1020, "unit": "nM"}
    ]}
  ]
}
